This note sets out measurements from doi:10.1101/2024.02.23.581731v1 (biorxiv, 2024).

The target in assay [1] is T1, h5-HT3AR (Homo sapiens, UniProt P46098).
T1 sequence (P46098 24-478): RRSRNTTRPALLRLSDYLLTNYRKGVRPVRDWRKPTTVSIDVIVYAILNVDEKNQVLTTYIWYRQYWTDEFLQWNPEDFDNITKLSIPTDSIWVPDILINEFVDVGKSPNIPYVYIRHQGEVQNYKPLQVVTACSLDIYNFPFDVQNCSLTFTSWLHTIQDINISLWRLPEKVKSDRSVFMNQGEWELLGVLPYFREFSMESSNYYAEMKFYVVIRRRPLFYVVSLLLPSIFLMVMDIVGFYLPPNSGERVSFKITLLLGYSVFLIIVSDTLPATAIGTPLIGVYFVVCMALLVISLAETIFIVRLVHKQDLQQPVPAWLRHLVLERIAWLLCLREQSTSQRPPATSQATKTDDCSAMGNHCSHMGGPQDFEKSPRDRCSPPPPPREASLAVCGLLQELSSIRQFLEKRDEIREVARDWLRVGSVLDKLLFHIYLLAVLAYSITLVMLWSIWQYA
In words: FLIPR Blue membrane potential assay, activation. It is filed as cell-based. The conditions noted are these: relative to 1 µM VTX.

In assay [2] the target is T1, h5-HT3AR. In words: [3H]-GR65630 displacement, HEK-293 membranes. It is filed as binding.
Assay [3] deals with T2, h5-HT3AR (Homo sapiens, UniProt P46098, V202I).
T2 sequence (P46098 24-478 V202I): T1 sequence (P46098 24-478) with V179I
In words: biochemical.

Assay [4] addresses T1, h5-HT3AR. In words: biochemical.
For another assay, the target named is T3, gp5-HT3AR (Cavia porcellus, UniProt O70212).
T3 sequence (O70212 20-490): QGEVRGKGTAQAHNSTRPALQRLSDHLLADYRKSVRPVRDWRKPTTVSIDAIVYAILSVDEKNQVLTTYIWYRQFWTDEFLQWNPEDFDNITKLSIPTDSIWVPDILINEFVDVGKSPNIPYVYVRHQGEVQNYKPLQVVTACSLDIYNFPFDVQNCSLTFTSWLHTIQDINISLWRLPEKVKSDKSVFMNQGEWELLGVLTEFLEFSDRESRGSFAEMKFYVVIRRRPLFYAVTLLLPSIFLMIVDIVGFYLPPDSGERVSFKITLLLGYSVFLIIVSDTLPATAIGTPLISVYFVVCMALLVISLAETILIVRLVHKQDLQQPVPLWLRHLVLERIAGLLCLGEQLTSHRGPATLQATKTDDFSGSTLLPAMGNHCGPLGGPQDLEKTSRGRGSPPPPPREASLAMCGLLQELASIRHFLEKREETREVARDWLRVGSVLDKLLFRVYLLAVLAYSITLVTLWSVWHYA
In words: FLIPR Blue membrane potential assay, inhibition of 5-HT response. It is filed as cell-based.

Structures are written as SMILES. Where a chain is given by its changes, count along the chain named.

Usually Ki stands for a measure of affinity in units of concentration, obtained from inhibition or displacement. A low value points to a stronger hold on the target. What is called Kd is the constant that tells how readily two partners part at equilibrium. A high value points to lower affinity. As a reminder, the IC50 is the concentration needed to halve the response being measured.

As for `Cc1ccc(Sc2ccccc2N2CCNCC2)cc1` [4j], on h5-HT3AR [1], the “Activity (%) at 1 μM” value was 95 ± 12%.

As for `COc1ccc(Sc2ccccc2N2CCNCC2)c(Cl)c1` [5n], the “Activity (%) at 1 μM” value at h5-HT3AR [1] stood at 111 ± 14%.

As to `Cc1ccc(Sc2ccc(C)cc2N2CCNCC2)c(C)c1` [6b], on h5-HT3AR [2], the Ki stood at 880 nM.

As to `Cc1[nH]cnc1CCC(=O)c1cn(C)c2ccccc12` [[3H]-GR65630], the Kd on h5-HT3AR [3] was determined as 0.62 ± 0.05 nM; at h5-HT3AR [4] it was 0.82 ± 0.06 nM.

Regarding `CN1C2CCCC1CC(NC(=O)c1nn(C)c3ccccc13)C2` (stereo not shown) [granisetron], at gp5-HT3AR, the IC50 amounted to 1.26 µM.

At gp5-HT3AR, `Cc1nccn1CC1CCc2c(c3ccccc3n2C)C1=O` (stereo not shown) [ondansetron] had an IC50 of 9.81 µM.
